Assay results taken from patent EP0067666A1, “Salts of antimicrobial naphthyridine and quinoline compounds and their production” (priority 1981, dated 1982).
Values after ≈ are worked out from the molar mass of the structure shown. Where two headings read alike, the source gives them in different places.

What was measured:
[1] = system: Klebs. pneumoniae MGH-2; assay: Antibacterial activity, MIC; format: cell-based; settings: Klebsiella pneumoniae, MGH2, based on content of compound B
[2] = system: E. coli Vogel; assay: Antibacterial activity, MIC; format: cell-based; settings: Escherichia coli, based on content of compound B
[3] = Two-way crossover oral trial, drug blood levels by disk agar diffusion microbiological assay; format: in vivo; settings: Beagle dogs, single 25 mg/kg (parent compound equivalent) oral dose in hard gelatine capsules; compound B compared with compound D as the glutamate
Protocol: Drug blood levels were determined by a disk agar diffusion microbiological assay.

[4] = system: Entero cloacae MA 2646; assay: Antibacterial activity, MIC; format: cell-based; settings: based on content of compound B
[5] = system: Staph. aureus UC-76; assay: Antibacterial activity, MIC; format: cell-based; settings: based on content of compound B
[6] = system: Klebsiella pneumoniae MGH-2; assay: Acute mouse protection test; format: in vivo; settings: subcutaneous, single dose given at time of challenge, compound B series
[7] = system: Staph. aureus H 228; assay: Antibacterial activity, MIC; format: cell-based; settings: Staphylococcus aureus, H228, based on content of compound B
[8] = system: Staphylococcus aureus UC-76; assay: Acute mouse protection test; format: in vivo; settings: single dose given at time of challenge, compound B series
[9] = system: Escherichia coli Vogel; assay: Acute mouse protection test; format: in vivo; settings: Escherichia coli, single dose given at time of challenge, compound B series
[10] = system: Strep. pneumoniae SV-1; assay: Antibacterial activity, MIC; format: cell-based; settings: Streptococcus pneumoniae, SV1, based on content of compound B
[11] = system: Pseudo. aeruginosa UI-18; assay: Antibacterial activity, MIC; format: cell-based; settings: based on content of compound B
[12] = system: Proteus retgeri M 1771; assay: Antibacterial activity, MIC; format: cell-based; settings: based on content of compound B
[13] = system: Strep. faecalis MGH-2; assay: Antibacterial activity, MIC; format: cell-based; settings: Enterococcus faecalis, MGH2, based on content of compound B
[14] = system: Strep. pyogenes C-203; assay: Antibacterial activity, MIC; format: cell-based; settings: based on content of compound B
[15] = Lyophilization of the salts; format: physicochemical
Text: The unpredictable characteristics of the salts prepared from Compounds A and B are clear from consideration of the results reported in Table 1. These characteristics were considered in view of the necessary requirements (a-f) outlined above for preparing a useful parenteral dosage form. […] From the data in Table 1, the lactate salts appear to be useful; however, lactic acid cannot be consistently obtained in a satisfactory grade in presently available commercial forms and is therefore not useful. The choline and sodium salts were ruled out based on the pH of their respective solutions.

## CCn1cc(C(=O)O)c(=O)c2cc(F)c(N3CCNCC3)nc21 [Compound B, 1-ethyl-6-fluoro-1,4-dihydro-4-oxo-7-(1-piperazinyl)-1,8-naphthyridine-3-carboxylic acid, reference compound]
[1]
  MIC: 0.1 µg/mL (≈ 0.312 µM)
[2]
  MIC: 0.2 µg/mL (≈ 0.624 µM)
[3]
  drug half-life: no significant difference
  peak blood level: no significant difference
[4]
  MIC: 0.2 µg/mL (≈ 0.624 µM)
[5]
  MIC µg/ml Staph. aureus UC-76: 0.2 µg/mL (≈ 0.624 µM)
[6]
  Single sc Dose PD50 (mg/kg) ± 95% Confidence Limits Klebsiella pneumoniae MGH-2: 2.6 ± 0.6 mg/kg
[7]
  MIC: 3.1 µg/mL (≈ 9.68 µM)
[8]; Staphylococcus aureus, UC76, po, oral, read-out: Single po Dose PD50 (mg/kg) ± 95% Confidence Limits Staphylococcus aureus UC-76
  ED50: 14 ± 7 mg/kg
[8]; subcutaneous
  Single sc Dose PD50 (mg/kg) ± 95% Confidence Limits Staphylococcus aureus UC-76: 7.4 ± 2.2 mg/kg
[9]; po, read-out: Single po Dose PD50 (mg/kg) ± 95% Confidence Limits Escherichia coli Vogel
  ED50: 3.1 ± 0.7 mg/kg
[9]; sc, subcutaneous, read-out: Single sc Dose PD50 (mg/kg) ± 95% Confidence Limits Escherichia coli Vogel
  ED50: 1.4 ± 0.4 mg/kg
[10]
  MIC: 3.1 µg/mL (≈ 9.68 µM)
[11]
  MIC µg/ml Pseudo. aeruginosa UI-18: 0.8 µg/mL (≈ 2.5 µM)
[12]
  MIC: 0.1 µg/mL (≈ 0.312 µM)
[13]
  MIC: 1.6 µg/mL (≈ 4.99 µM)
[14]
  MIC µg/ml Strep. pyogenes C-203: 3.1 µg/mL (≈ 9.68 µM)

## CCn1cc(C(=O)O)c(=O)c2cc(F)c(N3CCNCC3)cc21 [A acetate]
[15]
  lyophilization: cannot be successfully lyophilized

## CCn1cc(C(=O)O)c(=O)c2cc(F)c(N3CCNCC3)nc21 [B acetate]
[15]
  lyophilization: cannot be successfully lyophilized
